Tests used:
Assay type in all cases: in vivo
[1] = test system: Rice (variety: Nipponbare); experiment: Test Example 1: promotion of root growth by hydroponics of rice, 10 ppm; conditions: hydroponic solution containing the test compound at 10 ppm, average of 4 or 5 individuals; for change in vivo at 10 ppm: Oryza sativa, read-out: Relative value of length of seminal root (%-untreated control plot)
Procedure: (§1) Test for Evaluating Promotion of Root Growth by Hydroponics of Rice
(§2) Rice (variety: Nipponbare)
(§3) Rice seeds were soaked in a 1% aqueous sodium hypochlorite solution for 10 minutes, then soaked in a 70% ethanol solution for surface sterilization, and then washed with distilled water. The sterilized seeds were soaked in a hydroponic solution containing the test compound described above at 10 ppm and incubated in a dark place for 3 days at 28° C. to perform treatment for hastening germination.
(§4) Thereafter, 30 ml of hydroponic solution containing the test compound at 10 ppm was dispensed in a plastic tube (diameter of 20 mm×height of 113 mm) of which the side was covered with cardboard to block light. A float prepared using a styrene board and vinyl mesh was floated, and the rice seeds that had undergone the treatment for hastening germination were placed on the float on the surface of the hydroponic solution. The seeds were cultivated for 3 days at 26° C., an illuminance of 4,000 lux of the top surface of the tube, a humidity of 50%, and a day length of 16 hours.
(§5) The nursery plants of rice obtained after culturing were measured in terms of the length of seminal root by using WinRHIZO system (manufactured by Regent Instruments Inc). For each test plot, an average of the measured values of the seminal root of 4 or 5 individuals was determined.

[2] = test system: Rice (variety: Nipponbare); experiment: Test Example 2: promotion of root growth by hydroponics of rice, 1 ppm; conditions: hydroponic solution containing the test compound at 1 ppm, average of 4 or 5 individuals; for change in vivo at 1 ppm: Oryza sativa, read-out: Relative value of length of seminal root (%-untreated control plot)
Procedure: as §1, §2
A DMSO solution, which contained one of the compounds 1, 3, 11, 12, 14, 15, 17, 21, 28, 30, 33, 34, 35, 36, 37, 38, 40, 41, 43, 44, 45, 46, 47, 49, 50, 51, 52, 53, 54, 55, 56, 61, 62, 63, 65, 67, 68, 69, 70, 73, 74, 75, 76, 77, 80, 82, 83, 85 and 86 of the present invention at a concentration of 10,000 ppm, was added to Hoagland hydroponic solution (Hoagland and Arnon, California Agricultural Experiment Station 1950 Circular 347 pp. 34) of ¼-fold concentration at a volume ratio of 1/10,000. In this manner, hydroponic solutions containing one of the compounds 1, 3, 11, 12, 14, 15, 17, 21, 28, 30, 33, 34, 35, 36, 37, 38, 40, 41, 43, 44, 45, 46, 47, 49, 50, 51, 52, 53, 54, 55, 56, 61, 62, 63, 65, 67, 68, 69, 70, 73, 74, 75, 76, 77, 80, 82, 83, 85 and 86 of the present invention at 1 ppm were prepared respectively. As an untreated control plot, a hydroponic solution obtained by adding DMSO to Hoagland hydroponic solution of ¼-fold concentration at a volume ratio of 1/10,000 was used. Rice seeds were soaked in a 1% aqueous sodium hypochlorite solution for 10 minutes, then soaked in a 70% ethanol solution for surface sterilization, and then washed with distilled water. The sterilized seeds were soaked in a hydroponic solution containing the test compound described above at 1 ppm and incubated in a dark place for 3 days at 28° C. to perform treatment for hastening germination.
as §4, with “1” for “10”
The nursery plants of rice obtained after cultivation were measured in terms of the length of seminal root by using WinRHIZO system (manufactured by Regent Instruments Inc). For each test plot, an average of the measured values of the seminal root of 4 or 5 individuals was determined.

[3] = test system: Rice (variety: Nipponbare); experiment: Test Example 3: promotion of root growth by hydroponics of rice, 0.1 ppm; conditions: Oryza sativa, hydroponic solution containing the test compound at 0.1 ppm, average of 4 or 5 individuals, read-out: Relative value of length of seminal root (%-untreated control plot)
Procedure: as §1, §2
A DMSO solution, which contained one of the compounds 2, 6, 7, 16, 20, 33, 34, 36, 37, 38, 40, 41, 43, 44, 45, 46, 47, 48, 50, 51, 52, 53, 54, 55, 56, 61, 64, 67, 68, 71, 72, 73, 74, 75, 76, 79, 80, 81 and 83 of the present invention at a concentration of 1,000 ppm, was added to Hoagland hydroponic solution (Hoagland and Arnon, California Agricultural Experiment Station 1950 Circular 347 pp. 34) of ¼-fold concentration at a volume ratio of 1/10,000. In this manner, hydroponic solutions containing one of the compounds 2, 6, 7, 16, 20, 33, 34, 36, 37, 38, 40, 41, 43, 44, 45, 46, 47, 48, 50, 51, 52, 53, 54, 55, 56, 61, 64, 67, 68, 71, 72, 73, 74, 75, 76, 79, 80, 81 and 83 of the present invention at 0.1 ppm were prepared respectively. As an untreated control plot, a hydroponic solution obtained by adding DMSO to Hoagland hydroponic solution of ¼-fold concentration at a volume ratio of 1/10,000 was used.
as §3, with “at 0.1” for “at 10”
as §4, with “0.1” for “10”
as §5

Nicotiana benthamiana = experiment: Test Example 4: growth promotion under low-temperature stress by hydroponics of Nicotiana benthamiana, 10 ppm; conditions: 10 ppm in medium, low-temperature stress 7 days at 1.5±1.0° C., green leaf area 3 days later, equation (1)
Procedure: Test for Evaluating Growth Promotion Under Low-Temperature Stress by Hydroponics of Nicotiana benthamiana
A DMSO solution, which contained one of the compounds 1, 8, 9, 13, 18, 19, 22, 23, 29, 32, 33, 34, 39, 40, 41, 43, 44, 51, 53, 54, 55, 56, 58, 60, 62, 63, 64, 65, 67, 69, 71, 73, 74, 75, 77, 79, 82, 83 and 86 of the present invention at a concentration of 10,000 ppm, was prepared. The DMSO solution of the compound of the present invention was added at a volume ratio of 1/1,000 to the Murashige•Scoog medium of a ½-fold concentration (a medium containing 2.3 g of mixed salts for the Murashige•Scoog medium (manufactured by Wako Pure Chemical Industries, Ltd.), 200 mg of Myo-inositol (manufactured by Sigma-Aldrich Co. LLC.), 2 mg of nicotinic acid (manufactured by Wako Pure Chemical Industries, Ltd.), 2 mg of pyridoxine hydrochloride (manufactured by Wako Pure Chemical Industries, Ltd.), 20 mg of thiamine hydrochloride (manufactured by Wako Pure Chemical Industries, Ltd.), 20 g of sucrose (manufactured by Wako Pure Chemical Industries, Ltd.), and 1 g of MES (manufactured by DOJINDO LABORATORIES) per 1 L of water and having pH adjusted to 5.8), thereby preparing a medium containing the compound of the present invention at a concentration of 10 ppm.
Seeds of Nicotiana benthamiana were seeded in the 5 μL of the medium and cultured overnight at 22° C. Thereafter, 45 μL of the medium containing the compound of the present invention at a concentration of 10 ppm was added thereto, and the seeds are cultivated for 7 days at 22° C., an illuminance of 4,000 lux, and a day length of 16 hours, and the nursery plants raised from the Nicotiana benthamiana were treated with the compound. Moreover, instead of the above medium, a test plot, which was obtained by performing the same treatment by using a medium prepared by adding DMSO to the Murashige•Scoog medium of ½-fold concentration at a volume ratio of 1/1,000, was used as a control plot not treated with the compound.
The nursery plants of the Nicotiana benthamiana treated with the compound were subjected to low-temperature treatment by being cultivated for 7 days at 1.5±1.0° C., an illuminance of 2,000 lux, and a day length of 16 hours.
The nursery plants of the Nicotiana benthamiana having undergone the low-temperature stress treatment were cultivated for 3 days at 22° C., an illuminance of 4,000 lux, and a day length of 16 hours. Thereafter, the area of green leaf was quantified by Scanalyzer HTS (manufactured by LemnaTec GmbH). Moreover, the value of the control plot not treated with the compound that had not yet been subjected to the low-temperature stress treatment was measured in the same manner. A value of a relative leaf area was calculated based on the following equation (1), and if the value of a relative leaf area was 5 or greater, the compound was evaluated to have a mitigating effect. As a result of the evaluation, it was confirmed that when the plant was treated with one of the compounds 1, 8, 9, 13, 18, 19, 22, 23, 29, 32, 33, 34, 39, 40, 41, 43, 44, 51, 53, 54, 55, 56, 58, 60, 62, 63, 64, 65, 67, 69, 71, 73, 74, 75, 77, 79, 82, 83 and 86 of the present invention at 10 ppm, the value of a relative leaf area was 5 or greater, compared to the area of green leaf of the control plot not treated with compound. Accordingly, it was confirmed that the treatment using the compound of the present invention brings about a growth promotion effect.
Relative leaf area=100*(a green area of a plot treated with the compound of the present invention−a green area of a control plot not treated with the compound of the present invention)/(a green area of a control plot not treated with the compound of the present invention that has not yet been subjected to low-temperature stress treatment−a green area of a control plot not treated with the compound of the present invention) Equation (1): […]

Row | SMILES | change in vivo at 10 ppm [1] [%] | change in vivo at 1 ppm [2] [%] | other results
1 | COC(=O)c1nc2cccnc2n1C [Compound 26, methyl 3-methyl-3H-imidazo[4,5-b]pyridine-2-carboxylate] | > 5 |  | 
2 | CCOC(=O)c1cc2cccc(C(F)(F)F)c2[nH]1 [Compound 12] |  |  | Relative value of length of seminal root (%-untreated control plot) [2]: >5%
3 | COC(=O)c1nc2ccccc2[nH]1 [Compound 19] |  |  | Relative value of length of seminal root (%-untreated control plot) [1]: >5%
4 | COC(=O)c1oc2ccccc2c1N(C(=O)C(F)(F)F)C(=O)C(F)(F)F [Compound 38] | > 5 | > 5 | change in vivo at 0.1 ppm [3]: > 5%
5 | COC(=O)c1oc2ccccc2c1NS(=O)(=O)c1ccccc1 [Compound 61] | > 5 | > 5 | change in vivo at 0.1 ppm [3]: > 5%
6 | O=C(Oc1ccccc1)c1oc2ccc(C(F)(F)F)cc2c1C(F)(F)F [Compound 72] |  |  | change in vivo at 0.1 ppm [3]: > 5%
7 | O=C(O)c1nc2ccccc2[nH]1 [Compound 18] | > 5 |  | relative leaf area at 10 ppm (Nicotiana benthamiana): ≥ 5%
8 | O=C(O)c1cc2cccc(C(F)(F)F)c2[nH]1 [Compound 11] |  |  | Relative value of length of seminal root (%-untreated control plot) [2]: >5%
9 | COC(=O)c1cc2ccccc2[nH]1 [Compound 13] |  |  | Relative value of length of seminal root (%-untreated control plot) [1]: >5%
10 | Cn1c(C(=O)O)cc2ccccc21 [Compound 14] |  |  | Relative value of length of seminal root (%-untreated control plot) [2]: >5%
11 | COC(=O)c1nc2ccc(C(F)(F)F)cc2n1C [Compound 25, methyl 1-methyl-6-trifluoromethylbenzimidazole-2-carboxylate] | > 5 |  | 
12 | COC(=O)c1cc2ccccc2n1C [Compound 15] |  | > 5 | 
13 | O=C(O)c1cc2ccc(C(F)(F)F)cc2o1 [Compound 47] | > 5 | > 5 | change in vivo at 0.1 ppm [3]: > 5%
14 | COc1ccc(NC(=O)c2cc3cc(C(F)(F)F)ccc3[nH]2)c(OC)c1 [Compound 10, N-(2,4-dimethoxyphenyl)-5-trifluoromethylindole-2-carboxamide] | > 5 |  | 
15 | Nc1c(C(=O)O)oc2ccc(C(F)(F)F)cc12 [Compound 49] | > 5 | > 5 | 
16 | CCOC(=O)c1cc2ccc(C(F)(F)F)cc2o1 [Compound 46] | > 5 | > 5 | change in vivo at 0.1 ppm [3]: > 5%
17 | COC(=O)c1oc2ccccc2c1O [Compound 35] | > 5 | > 5 | 

From patent US20150289512A1, “METHOD FOR PROMOTING PLANT GROWTH” (SUMITOMO CHEMICAL COMPANY, LIMITED, priority 2012, published 2015)
